PMC5141248 (Biochemistry, 2016)

Target: human CP4H1 (Homo sapiens, UniProt P13674)
Test: UPLC peptide hydroxylation assay
Type: biochemical
Details: turnover; cosubstrate 0.1-10 mM, dansylGlyProProGlyOEt 500 μM, Fe(II) 50 μM, ascorbate 2 mM, pH 7.8, 30 °C

Sequence of human CP4H1 (P13674 18-534): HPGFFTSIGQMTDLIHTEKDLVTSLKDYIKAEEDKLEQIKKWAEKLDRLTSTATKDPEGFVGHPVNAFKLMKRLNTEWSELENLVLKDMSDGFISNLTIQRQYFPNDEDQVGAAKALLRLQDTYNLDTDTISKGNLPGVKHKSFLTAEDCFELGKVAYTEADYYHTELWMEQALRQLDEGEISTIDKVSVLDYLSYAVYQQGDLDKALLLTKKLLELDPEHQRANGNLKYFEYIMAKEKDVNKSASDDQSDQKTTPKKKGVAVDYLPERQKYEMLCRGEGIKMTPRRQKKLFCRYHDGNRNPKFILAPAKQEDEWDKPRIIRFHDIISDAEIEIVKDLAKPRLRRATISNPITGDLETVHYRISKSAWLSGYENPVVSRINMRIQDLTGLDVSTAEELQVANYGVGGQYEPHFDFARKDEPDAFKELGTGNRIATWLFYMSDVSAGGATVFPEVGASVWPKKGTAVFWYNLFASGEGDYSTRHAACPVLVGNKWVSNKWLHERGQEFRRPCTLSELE
Sequence of human CP4H1 (P07237 18-508 partner): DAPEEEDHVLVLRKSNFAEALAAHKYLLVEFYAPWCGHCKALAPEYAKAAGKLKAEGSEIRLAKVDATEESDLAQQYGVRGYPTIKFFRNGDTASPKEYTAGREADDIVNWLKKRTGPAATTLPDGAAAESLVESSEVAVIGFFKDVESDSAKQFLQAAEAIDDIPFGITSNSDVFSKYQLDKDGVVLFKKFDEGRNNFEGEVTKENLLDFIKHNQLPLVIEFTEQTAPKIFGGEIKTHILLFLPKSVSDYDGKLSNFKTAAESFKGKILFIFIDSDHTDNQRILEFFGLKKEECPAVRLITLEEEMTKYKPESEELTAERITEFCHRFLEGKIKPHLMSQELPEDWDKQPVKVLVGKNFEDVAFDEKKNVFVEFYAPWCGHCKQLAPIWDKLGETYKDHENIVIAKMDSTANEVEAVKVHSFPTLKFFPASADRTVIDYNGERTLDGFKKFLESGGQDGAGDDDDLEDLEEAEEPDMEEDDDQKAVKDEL

Question: For `O=C(O)CCC(=O)C(=O)O` [α-ketoglutarate], which “UPLC peptide hydroxylation assay” value is on record?
Answer: the reaction was initiated by the addition of α-ketoglutarate
